Reference: US20240390286A1, “PREPARATION OF PHARMACEUTICAL COMPOSITIONS USING SUPERCYCLE VAPOR PHASE DEPOSITION OF METAL OXIDES” (Applied Materials, Inc., priority 2023, published 2024)

Experiments:
Format in all cases: physicochemical
[1] = Indomethacin dissolution, pH 7.2 sodium phosphate buffer, USP2 apparatus (paddle); conditions: 37° C., 100 rpm
Experimental: In some embodiments, the dissolution or drug release of the coated particles can be assessed by an in vitro release over time (dissolution) analysis. In some embodiments, the dissolution or drug release of the coated particles can be assessed by HPLC analysis. In some embodiments, the dissolution is assessed in methanol. In some embodiments, the dissolution is assessed in a sodium phosphate buffer solution (PBS) (e.g., pH 7.2, with or without surfactant) at 37° C., with a stirring of 100 revolutions per minute (RPM), for more than 1 minute, more than 2 minutes, more than 5 minutes, more than 10 minutes, more than 20 minutes, more than 30 minutes, more than 40 minutes, more than 50 minutes, more than 60 minutes, more than 120 minutes, more than 3 hours, more than 4 hours, more than 5 hours, more than 6 hours, more than 7 hours, more than 8 hours, more than 12 hours, more than 16 hours, more than 24 hours. In some embodiments, the coated particles have a reduced dissolution rate compared to uncoated drug particles. […]

[2] = Indomethacin dissolution, pH 7.2 PIPES buffer, USP4 apparatus (flow through); conditions: 37° C., 16 ml/min
Experimental: FIG. 8 depicts the results of a study of indomethacin dissolution in pH 7.2 PIPES buffer solution in a USP4 dissolution apparatus (flow through) at 37° C. at a 16 ml/min flow rate. […] Again, the indomethacin release rates for AZO coated particles were in between that of ZnOx coated particles and that of AlOx coated particles. The release rate of AZO coated particles decreases as the Al/Zn ratio increases.

[3] = Particle size distribution by laser diffraction before and after coating
Text: As shown in the table below, there is no significant change in particle size distribution after the coating process.

COc1ccc2c(c1)c(CC(=O)O)c(C)n2C(=O)c1ccc(Cl)cc1 [UC-m-IMC, indomethacin]
indomethacin release profile [1]: immediate indomethacin release profile | indomethacin release profile [2]: immediate indomethacin release | D10 ([3]; laser diffraction): 4.4 ± 0.4 μm | D50 ([3]; laser diffraction): 13.3 ± 0.1 μm | D90 ([3]; laser diffraction): 24.5 ± 0.5 μm | Span ([3]; laser diffraction size distribution): 1.5
